In article PMC5011342, “A high throughput drug screening assay to identify compounds that promote oligodendrocyte differentiation using acutely dissociated and purified oligodendrocyte precursor cells” (BMC Research Notes, 2016):
Where two headings read alike, the source gives them in different places.

Experiments:
[1] = tested on: acutely dissociated and purified rat OPCs; experiment: Acute OL differentiation assay (MBP expression/cell, immunofluorescent image quantification); format: cell-based
Summary of the method: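 This acute differentiation assay used purified rat OPCs from postnatal day 6–7 pups, seeded into PDL/laminin-coated 96-well plates in differentiation medium lacking PDGF and FGF. Compounds were applied in quadruplicate after a 1–2 h preincubation at 37 °C, 10 % CO2, with 0.1 % DMSO negative and 40 ng/ml T3 positive controls in eight wells. After fixation on DIV4, anti-MBP immunofluorescence images yielded MBP expression/cell.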

expanded OPCs = experiment: cells; conditions: for viability at 0.1 µM / viability at 1 µM / viability at 10 µM: Rattus norvegicus, 72 h
Summary of the method: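 Toxicity screen: compounds added at 0.1, 1 and 10 µM to PDGF-AA-expanded OPCs in 96-well plates, 3-day incubation at 37 °C, 10% CO2, then alamarBlue 1:10 for 4 h with fluorescence readout. Results set screening doses of 10/2, 2/0.4 or 0.4/0.08 µM.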

[2] = Rattus norvegicus, test compound at 2 uM, NCC library screen, sheet "All OLga data", relative to quetiapine, read-out: 2 uM (% Quet)
[3] = Rattus norvegicus, test compound at 10 uM, NCC library screen, sheet "All OLga data", relative to quetiapine, read-out: 10 uM (% Quet)
[4] = read-out: 0.1 µM (% DMSO), alamarBlue viability, NCC library compound at 0.1 µM, sheet "All Tox data"
[5] = read-out: 1 µM (% DMSO), alamarBlue viability, NCC library compound at 1 µM, sheet "All Tox data"
[6] = read-out: 10 µM (% DMSO), alamarBlue viability, NCC library compound at 10 µM, sheet "All Tox data"
[7] = alamarBlue viability of expanded OPCs, compound at 0.1 µM, relative to DMSO control
[8] = alamarBlue viability of expanded OPCs, compound at 1 µM, relative to DMSO control
[9] = alamarBlue viability of expanded OPCs, compound at 10 µM, relative to DMSO control
[10] = Rattus norvegicus, test compound at 2 uM, MBP expression relative to quetiapine, NCC library screen, sheet "All OLga data", read-out: 2 uM (% Quet)
[11] = Rattus norvegicus, test compound at 10 uM, MBP expression relative to quetiapine, NCC library screen, sheet "All OLga data", read-out: 10 uM (% Quet)
[12] = test compound at 2 uM, NCC library screen, sheet "All OLga data", relative to quetiapine
[13] = test compound at 10 uM, NCC library screen, sheet "All OLga data", relative to quetiapine
[14] = alamarBlue viability, NCC library compound at 0.1 µM, sheet "All Tox data"
[15] = alamarBlue viability, NCC library compound at 1 µM, sheet "All Tox data"
[16] = alamarBlue viability, NCC library compound at 10 µM, sheet "All Tox data"

Row | Compound | activation at 2 µM [1, 2] | activation at 10 µM [1, 3] | viability at 0.1 µM (expanded OPCs; [4]) | viability at 1 µM (expanded OPCs; [5]) | viability at 10 µM (expanded OPCs; [6]) | 0.1 µM (% DMSO) (expanded OPCs; [7]) | 1 µM (% DMSO) (expanded OPCs; [8]) | 10 µM (% DMSO) (expanded OPCs; [9]) | also measured
1 | CCC1=C(C)CN(C(=O)NCCc2ccc(S(=O)(=O)NC(=O)N[C@H]3CC[C@H](C)CC3)cc2)C1=O [Glimepiride] | -12.7% | -54% | 97.2% | 82.6% | 83.6% |  |  |  | 
2 | Cc1cnc(C(=O)NCCc2ccc(S(=O)(=O)NC(=O)NC3CCCCC3)cc2)cn1 [Glipizide] | 6.4% | 8.4% |  |  |  | 88.0 % DMSO | 86.3 % DMSO | 83.0 % DMSO | 
3 | COc1ccc(Cl)cc1C(=O)NCCc1ccc(S(=O)(=O)NC(=O)NC2CCCCC2)cc1 [Glyburide] | -19.5% | -20.2% |  |  |  | 95.4 % DMSO | 91.5 % DMSO | 85.2 % DMSO | 
4 | C[N+]1(C)CCC(OC(=O)C(O)(c2ccccc2)C2CCCC2)C1 (stereo not shown) [Glycopyrrolate] | 7.1% | 19.5% | 96.7% | 91.4% | 115% | 100.4 % DMSO | 104.4 % DMSO | 113.1 % DMSO | activation at 2 µM [1, 10]: 26.7%; activation at 10 µM [1, 11]: 27.6%
5 | CC(C)C[C@H](NC(=O)[C@@H](COC(C)(C)C)NC(=O)[C@H](Cc1ccc(O)cc1)NC(=O)[C@H](CO)NC(=O)[C@H](Cc1c[nH]c2ccccc12)NC(=O)[C@H](Cc1cnc[nH]1)NC(=O)[C@@H]1CCC(=O)N1)C(=O)N[C@@H](CCCNC(=N)N)C(=O)N1CCC[C@H]1C(=O)NNC(N)=O [Goserelin] |  |  |  |  |  |  |  |  | 2 uM (% Quet) [1, 12]: -6.3 % Quet; 10 uM (% Quet) [1, 13]: 5.4 % Quet; 0.1 µM (% DMSO) (expanded OPCs; [14]): 95.7 % DMSO; 1 µM (% DMSO) (expanded OPCs; [15]): 94.5 % DMSO; 10 µM (% DMSO) (expanded OPCs; [16]): 97.2 % DMSO
6 | CN1C2CCCC1CC(NC(=O)c1nn(C)c3ccccc13)C2 (stereo not shown) [Granisetron] | -25.3% | -23.7% | 84.1% | 87.1% | 72.4% |  |  |  | 
7 | COC1=CC(=O)C[C@@H](C)[C@]12Oc1c(Cl)c(OC)cc(OC)c1C2=O [Griseofulvin] |  |  |  |  |  | 95.9 % DMSO | 93.1 % DMSO | 66.2 % DMSO | activation at 2 µM [1, 10]: -7.2%; activation at 10 µM [1, 11]: -53.4%
8 | N=C(N)N [Guanidine] |  |  |  |  |  |  |  |  | 2 uM (% Quet) [1, 12]: 1.4 % Quet; 10 uM (% Quet) [1, 13]: 5.3 % Quet; 0.1 µM (% DMSO) (expanded OPCs; [14]): 86.5 % DMSO; 1 µM (% DMSO) (expanded OPCs; [15]): 89.1 % DMSO; 10 µM (% DMSO) (expanded OPCs; [16]): 85.5 % DMSO
9 | C[C@@H]1C[C@H]2[C@@H]3C[C@H](F)C4=CC(=O)C(Cl)=C[C@]4(C)[C@@]3(F)[C@@H](O)C[C@]2(C)[C@@]1(O)C(=O)CO.O [Halometasone hydrate] |  |  |  |  |  |  |  |  | OL differentiation, 2 uM (% Quet) ([1]; 2 uM test compound, relative to quetiapine, sheet "All OLga data"): -42.5 % Quet; OL differentiation, 10 uM (% Quet) ([1]; 10 uM test compound, relative to quetiapine, sheet "All OLga data"): -89.7 % Quet; 0.1 µM (% DMSO) (expanded OPCs; alamarBlue viability of expanded OPCs, compound at 0.1 µM, sheet All Tox data): 103.7 % DMSO; 1 µM (% DMSO) (expanded OPCs; alamarBlue viability of expanded OPCs, compound at 1 µM, sheet All Tox data): 109.3 % DMSO; 10 µM (% DMSO) (expanded OPCs; alamarBlue viability of expanded OPCs, compound at 10 µM, sheet All Tox data): 105.9 % DMSO
10 | O=C(CCCN1CCC(O)(c2ccc(Cl)cc2)CC1)c1ccc(F)cc1 [Haloperidol] | 4.1% |  | 64% | 69.1% | 45.7% |  |  |  | activation at 0.4 µM ([1]; Rattus norvegicus, test compound at 0.4 uM, NCC library screen, sheet "All OLga data", relative to quetiapine, read-out: 0.4 uM (% Quet)): -22.3%
11 | Oc1c(Cl)cc(Cl)c(Cl)c1Cc1c(O)c(Cl)cc(Cl)c1Cl [Hexachlorophene] |  |  |  |  |  | 115.4 % DMSO | 10.8 % DMSO | 9.0 % DMSO | activation at 0.08 µM ([1]; Rattus norvegicus, read-out: 0.08 uM (% Quet)): -122%
12 | CC(=O)NCCCCCCNC(C)=O [Hexamethylene bisacetamide] |  |  |  |  |  |  |  |  | activation at 2 µM ([1]; Rattus norvegicus, 2 uM test compound, relative to quetiapine, sheet "All OLga data", read-out: OL differentiation, 2 uM (% Quet)): 4.1%; activation at 10 µM ([1]; Rattus norvegicus, 10 uM test compound, relative to quetiapine, sheet "All OLga data", read-out: OL differentiation, 10 uM (% Quet)): 12.8%; viability at 0.1 µM (expanded OPCs; read-out: 0.1 µM (% DMSO), alamarBlue viability of expanded OPCs, compound at 0.1 µM, sheet All Tox data): 80.5%; viability at 1 µM (expanded OPCs; read-out: 1 µM (% DMSO), alamarBlue viability of expanded OPCs, compound at 1 µM, sheet All Tox data): 83.1%; viability at 10 µM (expanded OPCs; read-out: 10 µM (% DMSO), alamarBlue viability of expanded OPCs, compound at 10 µM, sheet All Tox data): 87.3%
